From patent US20040014144A1, “Method of screening for substances acting on MSK1” (Leo Pharmaceutical Products Ltd. A/S, priority 1999, published 2004)

How the values were obtained:
IL-1β secretion in PBMC = experiment: LPS induced secretion of IL-1β in PBMC, enzyme immuno assay; type: cell-based, human; conditions: for inhibition of secretion of IL-1β: 30 min preincubation, 1 μg/ml LPS 18 hours
Description: (§1) The mononuclear cells (PBMC) were isolated from human peripheral blood by Lymphoprep® fractionation (Nycomed, Norway) and the THP-1 cells were obtained from the American Type Culture Collection (Accession No. TIB-202). Both cell lines were suspended in RPMI 1640 with 2% fetal calf serum (FCS), 2 mM L-glutamine, 100 U/ml penicillin and […] streptomycin. […] Louis, Mo., USA). […] The levels of IL-1β and TNF-α were measured in the culture supernatant by enzyme immuno assays (monoclonal antibodies were obtained from R & D Systems, Abingdon, UK).

TNF-α secretion in PBMC = experiment: LPS induced secretion of TNF-α in PBMC, enzyme immuno assay; type: cell-based, human; conditions: for inhibition of secretion of TNF-α: 30 min preincubation, 1 μg/ml LPS 18 hours
Description: as §1

[1] = tested on: TNF-α secretion in THP-1 cells; experiment: LPS induced secretion of TNF-α in THP-1 cells, enzyme immuno assay; type: cell-based, human; conditions: for inhibition of secretion of TNF-α: THP-1 cells, 1 μM of each compound, 60 min preincubation, 1 μg/ml LPS 5 hours
Description: as §1

[2] = tested on: NFκB transcriptional activity in THP-1 cells; experiment: NFκB-luciferase reporter gene assay in LPS stimulated THP-1 cells; type: cell-based, human; conditions: for reporter gene (luciferase) activity, % of the control value: THP-1 cells transfected with pBIIX, 1 μM of each compound, 1 hour pretreatment, 1 μg/ml LPS 5 h
Description: All transfections were performed in triplicate.

[3] = tested on: THP-1 or peripheral blood mononuclear cells (PBMC); experiment: LPS induced secretion of TNF-α and IL-1β in THP-1 or PBMC (summary statement); type: cell-based, human
Description: as §1

MSK1 = MSK1 (Homo sapiens, UniProt O75582); conditions: from reference (5); cited from earlier work
MSK1, sequence (O75582 whole entry): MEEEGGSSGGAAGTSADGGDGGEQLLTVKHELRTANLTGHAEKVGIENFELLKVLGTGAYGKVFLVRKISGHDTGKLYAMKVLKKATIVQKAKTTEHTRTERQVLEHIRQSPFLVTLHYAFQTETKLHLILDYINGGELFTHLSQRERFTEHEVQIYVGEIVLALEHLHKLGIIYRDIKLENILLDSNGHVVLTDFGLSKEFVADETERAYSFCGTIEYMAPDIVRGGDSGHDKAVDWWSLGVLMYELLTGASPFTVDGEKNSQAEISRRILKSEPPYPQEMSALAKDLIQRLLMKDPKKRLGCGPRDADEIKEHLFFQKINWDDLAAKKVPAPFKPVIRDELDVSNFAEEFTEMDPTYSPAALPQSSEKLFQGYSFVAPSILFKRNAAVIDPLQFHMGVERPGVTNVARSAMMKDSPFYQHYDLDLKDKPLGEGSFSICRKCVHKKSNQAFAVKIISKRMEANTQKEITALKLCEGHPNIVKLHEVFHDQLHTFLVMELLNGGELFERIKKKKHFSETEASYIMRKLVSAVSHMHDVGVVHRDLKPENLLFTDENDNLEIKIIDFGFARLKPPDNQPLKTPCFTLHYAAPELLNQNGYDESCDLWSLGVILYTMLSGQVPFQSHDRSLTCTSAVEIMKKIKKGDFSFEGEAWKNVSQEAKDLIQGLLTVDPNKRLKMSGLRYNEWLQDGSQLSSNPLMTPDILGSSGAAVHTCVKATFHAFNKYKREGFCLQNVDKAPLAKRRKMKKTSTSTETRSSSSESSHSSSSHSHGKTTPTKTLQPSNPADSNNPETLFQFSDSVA

| SMILES | inhibition of secretion of IL-1β (IL-1β secretion in PBMC; 10 μM compound) | inhibition of secretion of TNF-α (TNF-α secretion in PBMC; 10 μM compound) | inhibition of secretion of TNF-α [1] [%] | reporter gene (luciferase) activity, % of the control value [2] | inhibition of secretion of IL-1β (IL-1β secretion in PBMC; 1 μM compound) | inhibition of secretion of TNF-α (TNF-α secretion in PBMC; 1 μM compound) | LPS induced secretion of TNF-α and IL-1β [3] | inhibition of MSK1 activity in vitro (MSK1) | LPS induced NFκB transcriptional activity ([2]; THP-1 cells, summary statement) | inhibition at 1 µM (IL-1β secretion in PBMC; Homo sapiens, read-out: inhibition of secretion of IL-1β) [%] | inhibition at 1 µM (TNF-α secretion in PBMC; Homo sapiens, read-out: inhibition of secretion of TNF-α) [%] | inhibition at 1 µM ([1]; Homo sapiens, THP-1, read-out: inhibition of secretion of TNF-α) [%] |
| --- | --- | --- | --- | --- | --- | --- | --- | --- | --- | --- | --- | --- |
| COc1cccc(-c2cc(=O)c3ccccc3o2)c1N [PD98059] | about 40% | about 40% | 5 | no effect | – | – | – | – | – | – | – | – |
| Cn1cc(C2=C(c3cn(CCCSC(=N)N)c4ccccc34)C(=O)NC2=O)c2ccccc21 [Ro318220] | – | – | 50 | 15% | approximately 90% | approximately 90% | strongly inhibited | potent inhibitor | strongly inhibited | – | – | – |
| C[S+]([O-])c1ccc(-c2nc(-c3ccncc3)c(-c3ccc(F)cc3)[nH]2)cc1 (stereo not drawn) [SB203580] | – | – | – | 49% | – | – | – | – | – | 40 to 60 | 40 to 60 | 30 |
